This experiment has as its target RIPK1 (recombinant GST-RIPK1 kinase domain, residues 1-327) (Homo sapiens (Human), UniProt Q13546). Put plainly: RIPK1-ADP-Glo Enzymatic Assay. It is filed as biochemical. The following applies: ADP-Glo; 25 nM GST-RIPK1, 300 μM ATP; assay lower limit ~25 nM; read-out: RIPK1 V0 Ec50. Summed up:
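Compounds titrated 10-pt 1:3 from 100000 nM top (1% DMSO); 30 min preinc w/ 25 nM Sf21-expressed enzyme, RT; start w/ ATP (300 μM final) + dephos-MBP (3 μM); 150 min; ADP-Glo lumi; 4-param fit → EC50.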
On the technique in general: ADP-Glo turns the ADP formed in a reaction into a luminescent signal.
Chain of RIPK1 (recombinant GST-RIPK1 kinase domain, residues 1-327) (Q13546 1-327): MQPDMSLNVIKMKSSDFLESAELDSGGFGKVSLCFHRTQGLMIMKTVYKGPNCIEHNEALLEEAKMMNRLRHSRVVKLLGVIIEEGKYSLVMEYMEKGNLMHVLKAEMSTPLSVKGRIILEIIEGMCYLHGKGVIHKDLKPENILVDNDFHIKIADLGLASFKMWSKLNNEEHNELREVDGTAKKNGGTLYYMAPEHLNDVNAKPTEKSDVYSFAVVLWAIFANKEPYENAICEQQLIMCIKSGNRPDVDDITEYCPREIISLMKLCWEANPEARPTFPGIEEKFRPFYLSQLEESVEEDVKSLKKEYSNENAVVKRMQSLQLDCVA
By EC50 is commonly meant the concentration giving half of the maximal effect. Turning to `CC(C)N1Cc2nc(N3CCC4(CC3)O[C@@H]3CC[C@@H](c5ccccc5)N3C4=O)ccc2C1=O` [Example 4.195, (5′S,7a′R)-1-[5-oxo-6-(propan-2-yl)-6,7-dihydro-5H-pyrrolo[3,4-b]pyridin-2-yl]-5′-phenyltetrahydro-3′H-spiro[piperidine-4,2′-pyrrolo[2,1-b] [1,3]oxazol]-3′-one], the EC50 stood at 48.4 nM.

In the case of `COc1cccnc1C(=O)N1CCC2(CC1)O[C@@H]1CC[C@@H](c3cc(F)cc(F)c3)N1C2=O` [Example 6.81, (5′S,7a′R)-5′-(3,5-difluorophenyl)-1-(3-methoxypyridine-2-carbonyl)tetrahydro-3′H-spiro[piperidine-4,2′-pyrrolo[2,1-b] [1,3]oxazol]-3′-one], the EC50 was 935 nM.

For `O=C(c1cnnn1-c1cccnc1)N1CCC2(CC1)O[C@@H]1CC[C@@H](c3cc(F)cc(F)c3)N1C2=O` [Example 6.30, (5′S,7a′R)-5′-(3,5-difluorophenyl)-1-[1-(pyridin-3-yl)-1H-1,2,3-triazole-5-car-bonyl]tetrahydro-3′H-spiro[piperidine-4,2′-pyrrolo[2,1-b][1,3]oxazol]-3′-one], the EC50 came to 208 nM.

`Cc1cccc(C(=O)N2CCC3(CC2)O[C@@H]2CC[C@@H](c4cc(F)cc(F)c4)N2C3=O)c1F` [Example 6.8, (5′S,7a′R)-5′-(3,5-difluorophenyl)-1-(2-fluoro-3-methyl-benzene-1-carbonyl) tetrahydro-3′H-spiro [piperidine-4,2′-pyrrolo[2,1-b][1,3]oxazol]-3′-one]: the EC50 is below 25 nM.

Take `N#Cc1cccnc1C(=O)N1CCC2(CC1)O[C@@H]1CC[C@@H](c3cc(F)cc(F)c3)N1C2=O` [Example 6.103, 2-[(5′S,7a′R)-5′-(3,5-difluorophenyl)-3 oxotetrahydro-1H,3′H-spiro[piperidine-4,2′-pyrrolo[2,1-b][1,3]-oxazole]-1-carbonyl]-pyridine-3-carbonitrile]: the EC50 is 934 nM.

For the compound `N#Cc1cccc(S(=O)(=O)N2CCC3(CC2)O[C@@H]2CC[C@@H](c4cc(F)cc(F)c4)N2C3=O)c1` [Example 8.3, 3-{[(5′S,7a′R)-5′-(3,5-difluorophenyl)-3′-oxotetrahydro-1H,3′H-spiro[piperidine-4,2′-pyrrolo[2,1-b][1,3]oxazol]-1-yl]sulfonyl]benzonitrile], the EC50 was found to be 213 nM.

For the compound `N#Cc1cc([C@@H]2CC[C@H]3OC4(CCN(c5ccnc6c(F)cnn56)CC4)C(=O)N32)ccc1F` [Example 20.6, 2-fluoro-5-[(5′S,7a′R)-1-(3-fluoropyrazolo[1,5-a]pyrimidin-7-yl)-3′-oxotetrahydro-3′H-spiro[piperidine-4,2′-pyrrolo[2,1-b][1,3]oxazol]-5′-yl]benzonitrile], the EC50 was below 25 nM.

Take `Cc1ccncc1C(=O)N1CCC2(CC1)O[C@@H]1CC[C@@H](c3cc(F)cc(F)c3)N1C2=O` [Example 6.51, (5′S,7a′R)-5′-(3,5-difluorophenyl)-1-(4-methylpyridine-3-carbonyl)tetrahydro-3′H-spiro[piperidine-4,2′-pyrrolo[2,1-b] [1,3]oxazol]-3′-one]: the EC50 amounted to 600 nM.

`O=C(c1ccccc1)N1CCC2(CC1)C[C@@H]1OC[C@@H](c3ccccc3)N1C2=O` [Example 7.3, (3′R,7a′S)-1-(benzenecarbonyl)-3′-phenyltetrahydro-5′H-spiro[piperidine-4,6′-pyrrolo[2,1-b][1,3]oxazol]-5′-one]: the concentration giving a half-maximal response (EC50) was found to be 102 nM.

With `O=C(c1coc2ccccc12)N1CCC2(CC1)O[C@@H]1CC[C@@H](c3cc(F)cc(F)c3)N1C2=O` [Example 5.70], the EC50 was below 25 nM.

Consider `O=C1N2[C@@H](CC[C@H]2c2cc(F)cc(F)c2)OC12CN(c1cccc3ncnn13)C2` [Example 4.135, (5′S,7a′R)-5′-(3,5-difluorophenyl)-1-([1,2,4]triazolo[1,5-a]pyridin-5-yl)tetrahydro-3′H-spiro[azetidine-3,2′-pyrrolo[2,1-b] [1,3]oxazol]-3′-one], for which the EC50 came out at 63.7 nM.

Values taken from US12180226B2, “Spirotricycle RIPK1 inhibitors and methods of uses thereof” (Merck Sharp & Dohme LLC, priority 2021, dated 2024).
